From patent US20130143902A1, “COMPOSITIONS AND METHODS OF TREATING A PROLIFERATIVE DISEASE WITH A QUINAZOLINONE DERIVATIVE” (GILEAD CALISTOGA LLC, priority 2011, published 2013) come the findings set out here.

Molecules are shown by their SMILES.

One series has as its system PTEN null T-ALL. Nature of the series: Diseased Lck/PTEN^fl/fl mice with PTEN null T-ALL. Format: in vivo. Conditions: 30 mg/kg BID; for leukemia cells: about 125 million at Day 0. Here is the method: Mouse whole blood was incubated with appropriate antibodies and processed using the BD Bioscience BD FACS Lysing Solution according to the manufacturer's instructions. Immediately after lysis, cells were permeabilized with 0.025% Tween-20 in lysing solution for 15 minutes, then incubated with Ki67 antibodies. Single cell suspensions of thymocytes were isolated and stained with the appropriate antibodies as described in Swat, W. et al., Essential role of PI3 Kdelta and PI3 Kgamma in thymocyte survival, Blood 107, 2415-2422 (2006).
All mice were kept in specific pathogen-free facility at Columbia University Medical Center. All procedures were performed in accordance with the guidelines of the Institutional Animal Care and Use Committee. Lck-cre, NOD.Cg-Prkdc^scid Il2rg^tmlWjl/Sz and Gt(ROSA)26Sor^tml(Luc)Kael/J mice were obtained from the Jackson Laboratory. Mice deficient for PTEN in the T-cell lineage were generated by crossing Lck-cre with floxed PTEN. P110γ^−/− and p110δ^−/− mice as described in Swat, W. et al., Essential role of PI3 Kdelta and PI3 Kgamma in thymocyte survival, Blood 107, 2415-2422 (2006). The animals were intercrossed with Lck-cre/PTEN^fl/fl animals to generate mice homozygous mutant for either p110γ or p110δ and PTEN or homozygous mutant for p110γ, 110δ, and PTEN.
Lck/PTEN^fl/fl mice were crossed with the mice having a luciferase cDNA, preceded by a LoxP-stop-LoxP cassette was introduced into the ubiquitously expressed ROSA26 locus. […] The results are consistent with the reduction in whole blood cells and CD4 single positive population of tumor cells.
Lck/PTEN^fl/fl mice having T-ALL were administered with Compound B at an oral dose of 10 mg/kg every 8 hours or DMSO vehicle for a period of 7 days. […] Compound B extended the median survival to 45 days compared to 7.5 days for the vehicle group (data not shown).
Diseased Lck/PTEN^fl/fl mice (i.e. Lck/PTEN^fl/fl mice diagnosed with T-ALL) were treated with Compounds B for a period of 7 days. Mice were examined for sequential blood counts, peripheral smears, and flow cytometric analyses. […] Forward scatter (FSC) and Ki67 staining were indicators of cell size and proliferation, respectively; and apoptosis was detected by assessing the […] population after PI staining.
PTEN^fl/fl mice were crossed with the mice having a luciferase cDNA, preceded by a LoxP-stop-LoxP cassette was introduced into the ubiquitously expressed ROSA26 locus. Progeny were then crossed with Lck-cre transgenics to delete PTEN in T-cell progenitors and induce expression of luciferase. Imaging on T-ALL tumor bearing mice was performed at Day 0 and 4 after treatment of Compound B or vehicle.

In another series the test system is B Cell Malignancies. Nature of the series: Cellular viability, B cell malignancies. Format: cell-based. Conditions: N = 7. The source says: (§1) Cellular viability and pAkt activity were used to determine effects of Compounds A, C, and D in solid tumor, B-cell malignancies, and T-cell malignancies.
Another series deals with IGROV-1. Nature of the series: Viability (AlamarBlue), IGROV-1. The class given is cell-based. As to conditions: Homo sapiens; IGROV-1, Ovarian. Here is the method:
(§2) For primary T-ALL samples, cell viability was determined using the BD Cell Viability kit (BD Biosciences) and fluorescent counting beads as previously described in Armstrong, F. et al., NOTCH is a key regulator of human T-cell acute leukemia initiating cell activity, Blood 113, 1730-1740 (2009). Cells were plated with MS5-DL1 stroma cells. After 72 hours following treatment, cells were harvested and stained with an APC-conjugated anti-human CD45 according to the manufacturer's instructions. For solid tumor cell lines, cellular viability was determined using the AlamarBlue kit (Invitrogen). About 10,000 cells in 100 μL of media containing 10% FBS were aliquoted into individual wells of a 96-well plate and treated with vehicle (DMSO) or compound in triplicate for 24 hours. Ten μL of AlamarBlue reagent was added to each well and incubated for 4 hours at 37° C. with 5% CO2. Fluorescence was measured with an excitation wavelength at 530 to 560 nm and emission wavelength at 590 nm using Spectramax M5 plate reader (Molecular Devices, Sunnyvale, Calif.).

The next series has as its system U251. As to the kind of experiment: pAkt pathway inhibition, U251. Format: cell-based. As to conditions: Homo sapiens, U-251; U251, Glioma.
A further series concerns RXF-393. As to the kind of experiment: pAkt pathway inhibition, RXF-393. Format: cell-based. As to conditions: Homo sapiens; RXF-393, Renal.
Another series concerns 22Rv1. As to the kind of experiment: Viability (AlamarBlue), 22Rv1. The class given is cell-based. Conditions: Homo sapiens; 22Rv1, Prostate. Here is the method: as §2
Series [1] relates to 786-0. As to the kind of experiment: pAkt pathway inhibition, 786-0. As to conditions: Homo sapiens; 786-0, Renal. Format: cell-based.
Series [2] concerns 786-0. As to the kind of experiment: Viability (AlamarBlue), 786-0. Format: cell-based. Conditions: Homo sapiens; 786-0, Renal. Here is the method:
as §2

A further series concerns primary T-ALL tumors. Nature of the series: Viability of primary T-ALL tumors. Format: cell-based, human. As to conditions: 1.0, 2.5, and 5.0 μM, 72 hours. Here is the method:
Cryopreserved samples from the Columbia Presbyterian Hospital, the Erasmus MC-Sophia Children's Hospital, and the University of Padua were used. All samples were collected with informed consent and supervised by the institutes' review boards and the Acute Lymphoblastic Leukemia Strategic Scientific Committee.
as §2, with “Calif.). […]” for “Calif.).”

The next series is described as follows: Mouse PK. Format: in vivo. As to conditions: plasma, PO 20 mg/kg. The source says: The pharmacokinetics of Compound A in mouse and dogs were also examined. […] The results of Tmax (time of maximum observed concentration), Cmax (maximum concentration in plasma measured), AUC (area under the curve for plasma concentration versus time), Cl (total body clearance), and Vz (volume of distribution) were summarized in Table 4. As used herein, the mark ‘-’ represents data not relevant. AUC is shown as the unit of ng*h/mL (ng=nanograms, h=hour, mL=milliliter); ng are multiplied by h, and the value is divided by the volume in mL.

The subject of the next series is LNCaP. Nature of the series: Viability (AlamarBlue), LNCaP. The class given is cell-based. As to conditions: Homo sapiens, Prostate. The protocol: as §2
The test system of series [3] is pAkt in T Cell Malignancies. As to the kind of experiment: pAkt activity, T cell malignancies. Format: cell-based. Conditions: N = 7.
Excerpt: as §1

The subject of series [4] is PC3. As to the kind of experiment: pAkt pathway inhibition, PC3. As to conditions: Homo sapiens, PC-3; PC3, Prostate. The class given is cell-based.
For series [5], the system named is PC3. As to the kind of experiment: Viability (AlamarBlue), PC3. The class given is cell-based. Conditions: Homo sapiens, PC-3; PC3, Prostate. The protocol:
as §2

Another series has as its system SF-295. Nature of the series: pAkt pathway inhibition, SF-295. Format: cell-based. Conditions: Homo sapiens; SF-295, CNS.

Consider `CC(Nc1ncnc2[nH]cnc12)c1nc2cccc(Cl)c2c(=O)n1-c1ccccc1` (centres unmarked) [Compound A, 2-(1-(9H-purin-6-ylamino)ethyl)-5-chloro-3-phenylquinazolin-4(3H)-one], for which the CD3 levels result in the series on PTEN null T-ALL is on record as “reduced”. The leukemia cells entry with PTEN null T-ALL (Day 4) is reported as “about 5.6 million”; in the series on PTEN null T-ALL (Day 7) it was “about 4.2 million”. Moreover, in the series with PTEN null T-ALL (by Day 4), the white blood cells entry is on record as “significant reduction”. Further, the EC50 in the series on B Cell Malignancies was found to be 420 nM; with U251, 2250 nM; in the series with RXF-393, 25 nM; in the series on 786-0 [1] it was 44 nM; in [3], 310 nM; in the series with PC3 [4], 155 nM. Besides, the midpoint of the response with SF-295, the EC50, lay at 162 nM. Further, the 50% growth inhibitory concentration (GI50) in the series with IGROV-1 was 1300 nM; in the series with 22Rv1, 2300 nM; in the series with 786-0 [2], 5000 nM; in the series with LNCaP, 220 nM; with PC3 [5], 2400 nM. Also, the “viability of tumor cells” value in the series on primary T-ALL tumors is “reduced viability”. Moreover, the AUC in the series “Mouse PK” was 1500 ng·h/mL. In the series “Mouse PK”, this compound came in with a Cmax of 1280 ng/mL. Besides, the Tmax in “Mouse PK” turned out to be 15 min.
